Results published in patent publication US20250073248A1, “BIORESORBABLE CATIONIC STEROIDAL ANTIMICROBIAL COMPOUNDS WITH GLYCERIDE LINKAGES” (BRIGHAM YOUNG UNIVERSITY, priority 2023, published 2025).
≈ marks a conversion by molar mass, not a printed value.

Key:
[1] = physchem; format: physicochemical; conditions: for half-life: buffer
Experimental: The stability, more particularly the rate of hydrolysis in water, of CSA-4110 was tested at various pH values or when exposed to lipase.
To measure the stability of CSA-4110 under various conditions (pH and presence of lipase), monitored degradation over time by HPLC. To enable UV/visible detection, CSA-4110 required derivatization with a chromophore. A precolumn derivatization method was adapted using Fmoc-Cl. This method also required CSA-131 as an internal standard to eliminate errors due to volumetric variations.
With a reliable quantitative analysis method in hand, the optimal storage conditions were determined for CSA-4110 in solution and how quickly CSA-4110 degrades when exposed to mammalian lipases and varied pH. Reference is again made to FIGS. 3A-3D.

[2] = test system: S. aureus ATCC 27734; assay: MIC/MBC of CSA-4110, Gram positive bacteria (Table 2); format: cell-based; conditions: Staphylococcus aureus, ATCC27734
Experimental: (§1) All compounds were screened against these pathogens to determine their minimum inhibitory concentration (MIC), minimum bactericidal concentration (MBC), and minimum fungicidal concentration (MFC) using a broth microdilution method. […] Of these three, only CSA-4110 was similarly active against PA01and CA, inhibiting growth at 8 μg/mL.
(§2) CSA-4110 was evaluated further against a broader range of bacterial and fungal strains. Acinetobacter baumannii and several isolates of Staphylococcus aureus, Klebsiella pneumoniae, and Candida auris were selected, further broadening the coverage of high and critical priority pathogens. Streptococcus uberis, Staphylococcus pseudintermedius, Proteus mirabilis, and Escherichia coli were also screened to obtain a more complete efficacy profile. […] For comparison, previous work established the MICs of CSA-131 against strains of Staphylococcus aureus, Pseudomonas aeruginosa, and Candida albicans at 0.5-2 μg/mL

[3] = test system: S. aureus ATCC 25923; assay: as above; format: cell-based; conditions: Staphylococcus aureus, ATCC25923
Experimental: as §1, §2

[4] = test system: S. aureus ATCC 6538; assay: as above; format: cell-based; conditions: Staphylococcus aureus, ATCC6538
Experimental: as §1, §2

[5] = test system: S. uberis ATCC 27958; assay: as above; format: cell-based; conditions: Streptococcus uberis, ATCC27958
Experimental: as §1, §2

[6] = test system: S. psuedintermedius ATCC 49444; assay: as above; format: cell-based; conditions: Staphylococcus pseudintermedius, ATCC49444
Experimental: as §1, §2

[7] = test system: MRSA ATCC BAA-42; assay: as above; format: cell-based; conditions: Staphylococcus aureus
Experimental: as §1, §2

[8] = test system: MRSA ATCC BAA-42; assay: Membrane depolarization, DiSC2(5) fluorescence; format: cell-based, Staphylococcus aureus; conditions: 8 μg/mL, added at 140 seconds, FIG. 5
Experimental: Reference is made to FIGS. 4 and 5. […] CSA-131 or CSA-4110 was added at 140 second to achieve 8 μg/mL after addition.
Antimicrobial peptides (AMPs) and CSA compounds are known to permeabilize bacterial membranes. For bacterial survival, the cytoplasmic membrane must be polarized. Depolarization of this membrane prevents ATP synthesis and leads to cell death. The dye 3,3′-diethylthiadicarbocyanine iodide (DiSC2(5)) can be used to measure cell membrane polarization. Fluorescence of this dye is decreased when it inserts into polarized membranes, and membrane depolarization results in substantial increases in fluorescence (see FIG. 5).
MRSA was used to explore the impact of CSA-4110 on membrane depolarization and compared results to those with ceragenin CSA-131. […] Fluorescence was monitored over time after addition of CSA-4110 or CSA-131. which incorporated into cellular membranes.

[9] = test system: Candida albicans 90028; assay: Example 1 MIC/MFC (FIG. 1, FIG. 2), C. albicans; format: cell-based
Experimental: The antimicrobial activities of CSA-4108, CSA-4110, CSA-4112, and CSA-4114 were determined relative to methicillin-resistant Staphylococcus aureus (MRSA), Pseudomonas aeruginosa (Pa), and Candida albicans 90028. The minimum inhibitory concentration (MIC) for CSA-4108, CSA-4110, CSA-4112, and CSA-4114 relative to the foregoing microbes is graphically reported in FIG. 1. The minimum bactericidal concentration (MBC) and minimum fungicidal concentration […] for CSA-4108, CSA-4110, CSA-4112, and CSA-4114 relative to the foregoing microbes are graphically reported in FIG. 2.

[10] = test system: C. auris CDC 384; assay: MIC/MFC of CSA-4110, fungi (Table 4); format: cell-based, Candida auris; conditions: Candidozyma auris, CDC384
Experimental: as §1, §2

[11] = test system: C. auris CDC 387; assay: MIC/MFC of CSA-4110, fungi (Table 4); format: cell-based, Candida auris; conditions: Candidozyma auris, CDC387
Experimental: as §1, §2

[12] = test system: C. auris CDC 383; assay: MIC/MFC of CSA-4110, fungi (Table 4); format: cell-based, Candida auris; conditions: Candidozyma auris, CDC383
Experimental: as §1, §2

[13] = test system: C. auris CDC 382; assay: MIC/MFC of CSA-4110, fungi (Table 4); format: cell-based, Candida auris; conditions: Candidozyma auris, CDC382
Experimental: as §1, §2

[14] = test system: C. auris CDC 381; assay: MIC/MFC of CSA-4110, fungi (Table 4); format: cell-based, Candida auris; conditions: Candidozyma auris, CDC381
Experimental: as §1, §2

[15] = test system: C. auris CDC 388; assay: MIC/MFC of CSA-4110, fungi (Table 4); format: cell-based, Candida auris; conditions: Candidozyma auris, CDC388
Experimental: as §1, §2

[16] = test system: C. auris CDC 385; assay: MIC/MFC of CSA-4110, fungi (Table 4); format: cell-based, Candida auris; conditions: Candidozyma auris, CDC385
Experimental: as §1, §2

[17] = test system: C. auris CDC 386; assay: MIC/MFC of CSA-4110, fungi (Table 4); format: cell-based, Candida auris; conditions: Candidozyma auris, CDC386
Experimental: as §1, §2

[18] = test system: C. auris CDC 389; assay: MIC/MFC of CSA-4110, fungi (Table 4); format: cell-based, Candida auris; conditions: Candidozyma auris, CDC389
Experimental: as §1, §2

[19] = test system: C. auris CDC 390; assay: MIC/MFC of CSA-4110, fungi (Table 4); format: cell-based, Candida auris; conditions: Candidozyma auris, CDC390
Experimental: as §1, §2

With `CCCCCCCCCC(=O)OCC(O)COC(=O)CC[C@@H](C)[C@H]1CC[C@H]2[C@@H]3[C@H](OC(=O)CCN)C[C@@H]4C[C@H](OC(=O)CCN)CC[C@]4(C)[C@H]3C[C@H](OC(=O)CCN)[C@]12C` (stereo partly drawn) [CSA-4110] the half-life ([1]; pH 7.2) was 108 h, the half-life ([1]; pH 10) was 24 h and the “stability / hydrolysis in aqueous solution” value ([1]; pH 7.2) was “less stable”. For the same compound, the “stability / hydrolysis in aqueous solution” value ([1]; pH 10) was “unstable”, the MBC [2] was 4 µg/mL and the MIC [2] was 4 µg/mL. For the same compound, the MBC [3] was 8 µg/mL, the MIC [3] was 4 µg/mL and the MBC [4] was 8 µg/mL. For the same compound, the MIC [4] was 4 µg/mL, the MBC [5] was 4 µg/mL and the MIC [5] was 2 µg/mL. It also gave an MBC [6] of 4 µg/mL, an MIC [6] of 4 µg/mL and an MBC [7] of 2 µg/mL. The MIC [7] was 2 µg/mL, the “fluorescence of DiSC2(5) after addition (membrane depolarization)” value [8] was “rapid increase of fluorescence” and the “MFC (FIG. 2), ranking in words” value [9] was “lowest MBC and MFC”. The “MIC (FIG. 1), ranking in words” value [9] was “same MIC”, the MBC [10] was 16 µg/mL (≈ 18.8 µM) and the MIC [10] was 4 µg/mL (≈ 4.71 µM). It also gave an MBC [11] of 16 µg/mL (≈ 18.8 µM), an MIC [11] of 8 µg/mL (≈ 9.41 µM) and an MBC [12] of 16 µg/mL (≈ 18.8 µM). The MIC [12] was 8 µg/mL (≈ 9.41 µM), the MBC [13] was 16 µg/mL (≈ 18.8 µM) and the MIC [13] was 8 µg/mL (≈ 9.41 µM). For the same compound, the MBC [14] was 8 µg/mL (≈ 9.41 µM), the MIC [14] was 8 µg/mL (≈ 9.41 µM) and the MBC [15] was 16 µg/mL (≈ 18.8 µM). The MIC [15] was 8 µg/mL (≈ 9.41 µM), the MBC [16] was 16 µg/mL (≈ 18.8 µM) and the MIC [16] was 8 µg/mL (≈ 9.41 µM). The MBC [17] was 16 µg/mL (≈ 18.8 µM), the MIC [17] was 8 µg/mL (≈ 9.41 µM) and the MBC [18] was 16 µg/mL (≈ 18.8 µM). It also gave an MIC [18] of 8 µg/mL (≈ 9.41 µM), an MBC [19] of 16 µg/mL (≈ 18.8 µM) and an MIC [19] of 8 µg/mL (≈ 9.41 µM).
